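Five compound concentrations were applied to cells in 96-well plates for 48 hours; endpoints were derived by simple linear interpolation of the resulting dose-response curve. At the GI50, growth is halved. TGI: total growth inhibition.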
Assays:
Assay in all cases: inhibition of tumour cell growth, NCI panel, 48 h
786-0 renal = system: 786-0 renal
A549 NSCLC = system: A549 NSCLC
ACHN renal = system: ACHN renal
BT-549 breast = system: BT-549 breast
CAKI-1 renal = system: CAKI-1 renal
COLO 205 colon = system: COLO 205 colon
DU-145 prostate = system: DU-145 prostate
EKVX NSCLC = system: EKVX NSCLC
HCT-116 colon = system: HCT-116 colon
HCT-15 colon = system: HCT-15 colon
HL-60(TB) leukemia = system: HL-60(TB) leukemia
HOP-62 NSCLC = system: HOP-62 NSCLC
HOP-92 NSCLC = system: HOP-92 NSCLC
HS 578T breast = system: HS 578T breast
HT29 colon = system: HT29 colon
IGROV1 ovarian = system: IGROV1 ovarian
K-562 leukemia = system: K-562 leukemia
KM12 colon = system: KM12 colon
LOX IMVI melanoma = system: LOX IMVI melanoma
M14 melanoma = system: M14 melanoma
MALME-3M melanoma = system: MALME-3M melanoma
MCF7 breast = system: MCF7 breast
MDA-MB-231 breast = system: MDA-MB-231 breast
MDA-MB-435 = system: MDA-MB-435
MOLT-4 leukemia = system: MOLT-4 leukemia
NCI-H226 lung = system: NCI-H226 lung
NCI-H23 lung = system: NCI-H23 lung
NCI-H460 lung = system: NCI-H460 lung
NCI-H522 lung = system: NCI-H522 lung
NCI/ADR-RES ovarian = system: NCI/ADR-RES ovarian
OVCAR-3 ovarian = system: OVCAR-3 ovarian
OVCAR-4 ovarian = system: OVCAR-4 ovarian
OVCAR-5 ovarian = system: OVCAR-5 ovarian
OVCAR-8 ovarian = system: OVCAR-8 ovarian
PC-3 prostate = system: PC-3 prostate
RXF 393 renal = system: RXF 393 renal
SF-268 CNS = system: SF-268 CNS
SF-295 CNS = system: SF-295 CNS
SF-539 CNS = system: SF-539 CNS
SK-MEL-2 melanoma = system: SK-MEL-2 melanoma
SK-MEL-28 melanoma = system: SK-MEL-28 melanoma
SK-MEL-5 melanoma = system: SK-MEL-5 melanoma
SK-OV-3 ovarian = system: SK-OV-3 ovarian
SN12C renal = system: SN12C renal
SNB-19 CNS = system: SNB-19 CNS
SNB-75 CNS = system: SNB-75 CNS
SR leukemia = system: SR leukemia
SW-620 colon = system: SW-620 colon
T-47D breast = system: T-47D breast
TK-10 renal = system: TK-10 renal
U251 CNS = system: U251 CNS
UACC-257 melanoma = system: UACC-257 melanoma
UACC-62 melanoma = system: UACC-62 melanoma
UO-31 renal = system: UO-31 renal
A498 renal = system: A498 renal
CCRF-CEM leukemia = system: CCRF-CEM leukemia
HCC-2998 colon = system: HCC-2998 colon
RPMI-8226 leukemia = system: RPMI-8226 leukemia

SMILES: COc1ccc(C2=C(Cl)C(=O)N(c3ccc(OC)cc3OC)C(=O)C2(Cl)Cl)cc1
- TGI (786-0 renal): 29 µM
- TGI (A549 NSCLC): > 100 µM
- TGI (ACHN renal): 29.1 µM
- TGI (BT-549 breast): 77.3 µM
- TGI (CAKI-1 renal): 25.2 µM
- TGI (COLO 205 colon): 39.4 µM
- TGI (DU-145 prostate): 31 µM
- TGI (EKVX NSCLC): 87.1 µM
- TGI (HCT-116 colon): 28.9 µM
- TGI (HCT-15 colon): 27.9 µM
- TGI (HL-60(TB) leukemia): 69.8 µM
- TGI (HOP-62 NSCLC): 36.9 µM
- TGI (HOP-92 NSCLC): 36.6 µM
- TGI (HS 578T breast): 16.4 µM
- TGI (HT29 colon): 38.4 µM
- TGI (IGROV1 ovarian): 44.3 µM
- TGI (K-562 leukemia): > 100 µM
- TGI (KM12 colon): 33.6 µM
- TGI (LOX IMVI melanoma): 30.8 µM
- TGI (M14 melanoma): 29.7 µM
- TGI (MALME-3M melanoma): 35.8 µM
- TGI (MCF7 breast): 64.7 µM
- TGI (MDA-MB-231 breast): 20.5 µM
- TGI (MDA-MB-435): 34.4 µM
- TGI (MOLT-4 leukemia): 74 µM
- TGI (NCI-H226 lung): 27.1 µM
- TGI (NCI-H23 lung): 31 µM
- TGI (NCI-H460 lung): > 100 µM
- TGI (NCI-H522 lung): 36.5 µM
- TGI (NCI/ADR-RES ovarian): 41.9 µM
- TGI (OVCAR-3 ovarian): 25 µM
- TGI (OVCAR-4 ovarian): 32.2 µM
- TGI (OVCAR-5 ovarian): 27.6 µM
- TGI (OVCAR-8 ovarian): 52.4 µM
- TGI (PC-3 prostate): 33.5 µM
- TGI (RXF 393 renal): 57 µM
- TGI (SF-268 CNS): 65.9 µM
- TGI (SF-295 CNS): 66.4 µM
- TGI (SF-539 CNS): 23.5 µM
- TGI (SK-MEL-2 melanoma): 63.6 µM
- TGI (SK-MEL-28 melanoma): 36.1 µM
- TGI (SK-MEL-5 melanoma): 28.1 µM
- TGI (SK-OV-3 ovarian): > 100 µM
- TGI (SN12C renal): 13.8 µM
- TGI (SNB-19 CNS): > 100 µM
- TGI (SNB-75 CNS): 90.3 µM
- TGI (SR leukemia): 36.4 µM
- TGI (SW-620 colon): 30.1 µM
- TGI (T-47D breast): 30.3 µM
- TGI (TK-10 renal): 37.7 µM
- TGI (U251 CNS): 30.2 µM
- TGI (UACC-257 melanoma): 39.3 µM
- TGI (UACC-62 melanoma): 28 µM
- TGI (UO-31 renal): 37.4 µM

SMILES: O=C(OCc1nc2nc(Cl)nc(N3CCOCC3)c2[nH]1)n1ccnc1
- GI50 (786-0 renal): 1.84 µM
- TGI (786-0 renal): 3.98 µM
- GI50 (A498 renal): 2.9 µM
- TGI (A498 renal): 9.83 µM
- GI50 (A549 NSCLC): 3.24 µM
- TGI (A549 NSCLC): 12.9 µM
- GI50 (ACHN renal): 1.12 µM
- TGI (ACHN renal): 2.32 µM
- GI50 (BT-549 breast): 2.49 µM
- TGI (BT-549 breast): 9.49 µM
- GI50 (CAKI-1 renal): 1.21 µM
- TGI (CAKI-1 renal): 2.84 µM
- GI50 (CCRF-CEM leukemia): 1.17 µM
- TGI (CCRF-CEM leukemia): 6.92 µM
- GI50 (COLO 205 colon): 1.65 µM
- TGI (COLO 205 colon): 3.84 µM
- GI50 (DU-145 prostate): 1.59 µM
- TGI (DU-145 prostate): 3.18 µM
- GI50 (EKVX NSCLC): 2.04 µM
- TGI (EKVX NSCLC): 4.66 µM
- GI50 (HCC-2998 colon): 2.22 µM
- TGI (HCC-2998 colon): 4.16 µM
- GI50 (HCT-116 colon): 0.65 µM
- TGI (HCT-116 colon): 3.29 µM
- GI50 (HCT-15 colon): 2.06 µM
- TGI (HCT-15 colon): 6.45 µM
- GI50 (HL-60(TB) leukemia): 1.51 µM
- TGI (HL-60(TB) leukemia): 4.55 µM
- GI50 (HOP-62 NSCLC): 1.64 µM
- TGI (HOP-62 NSCLC): 4.78 µM
- GI50 (HOP-92 NSCLC): 1.17 µM
- TGI (HOP-92 NSCLC): 3.15 µM
- GI50 (HS 578T breast): 1.96 µM
- TGI (HS 578T breast): 5.37 µM
- GI50 (HT29 colon): 1.59 µM
- TGI (HT29 colon): 4.33 µM
- GI50 (IGROV1 ovarian): 1.32 µM
- TGI (IGROV1 ovarian): 2.64 µM
- GI50 (K-562 leukemia): 1.68 µM
- TGI (K-562 leukemia): 8.1 µM
- GI50 (KM12 colon): 1.88 µM
- TGI (KM12 colon): 4.72 µM
- GI50 (LOX IMVI melanoma): 0.72 µM
- TGI (LOX IMVI melanoma): 2.17 µM
- GI50 (MALME-3M melanoma): 1.72 µM
- TGI (MALME-3M melanoma): 3.22 µM
- GI50 (MCF7 breast): 1.84 µM
- TGI (MCF7 breast): 4.91 µM
- GI50 (MDA-MB-231 breast): 1.63 µM
- TGI (MDA-MB-231 breast): 3.38 µM
- GI50 (MDA-MB-435): 1.32 µM
- TGI (MDA-MB-435): 2.75 µM
- GI50 (MOLT-4 leukemia): 2.29 µM
- TGI (MOLT-4 leukemia): 6.47 µM
- GI50 (NCI-H23 lung): 2.41 µM
- TGI (NCI-H23 lung): 5.69 µM
- GI50 (NCI-H460 lung): 1.86 µM
- TGI (NCI-H460 lung): 4.02 µM
- GI50 (NCI-H522 lung): 1.71 µM
- TGI (NCI-H522 lung): 4.38 µM
- GI50 (NCI/ADR-RES ovarian): 2.57 µM
- TGI (NCI/ADR-RES ovarian): 8.84 µM
- GI50 (OVCAR-3 ovarian): 1.29 µM
- TGI (OVCAR-3 ovarian): 2.79 µM
- GI50 (OVCAR-4 ovarian): 1.63 µM
- TGI (OVCAR-4 ovarian): 3.38 µM
- GI50 (OVCAR-5 ovarian): 1.52 µM
- TGI (OVCAR-5 ovarian): 3.07 µM
- GI50 (OVCAR-8 ovarian): 2.56 µM
- TGI (OVCAR-8 ovarian): 11 µM
- GI50 (PC-3 prostate): 1.69 µM
- TGI (PC-3 prostate): 3.65 µM
- GI50 (RPMI-8226 leukemia): 0.582 µM
- TGI (RPMI-8226 leukemia): 3.32 µM
- GI50 (RXF 393 renal): 1.61 µM
- TGI (RXF 393 renal): 3.06 µM
- GI50 (SF-268 CNS): 1.74 µM
- TGI (SF-268 CNS): 3.6 µM
- GI50 (SF-295 CNS): 10.5 µM
- TGI (SF-295 CNS): 22.2 µM
- GI50 (SF-539 CNS): 1.48 µM
- TGI (SF-539 CNS): 2.82 µM
- GI50 (SK-MEL-2 melanoma): 1.95 µM
- TGI (SK-MEL-2 melanoma): 4.51 µM
- GI50 (SK-MEL-28 melanoma): 1.74 µM
- TGI (SK-MEL-28 melanoma): 3.24 µM
- GI50 (SK-MEL-5 melanoma): 1.83 µM
- TGI (SK-MEL-5 melanoma): 3.35 µM
- GI50 (SK-OV-3 ovarian): 3.4 µM
- TGI (SK-OV-3 ovarian): 14.3 µM
- GI50 (SN12C renal): 1.38 µM
- TGI (SN12C renal): 2.76 µM
- GI50 (SNB-19 CNS): 2.42 µM
- TGI (SNB-19 CNS): 6.46 µM
- GI50 (SNB-75 CNS): 1.04 µM
- TGI (SNB-75 CNS): 3.49 µM
- GI50 (SR leukemia): 1.09 µM
- TGI (SR leukemia): 5.09 µM
- GI50 (SW-620 colon): 1.5 µM
- TGI (SW-620 colon): 3.32 µM
- GI50 (T-47D breast): 1.88 µM
- TGI (T-47D breast): 4.48 µM
- GI50 (TK-10 renal): 1.94 µM
- TGI (TK-10 renal): 4.05 µM
- GI50 (U251 CNS): 1.96 µM
- TGI (U251 CNS): 4.32 µM
- GI50 (UACC-257 melanoma): 1.9 µM
- TGI (UACC-257 melanoma): 3.94 µM
- GI50 (UACC-62 melanoma): 1.55 µM
- TGI (UACC-62 melanoma): 2.94 µM
- GI50 (UO-31 renal): 1.19 µM
- TGI (UO-31 renal): 2.42 µM

Reference: PubChem BioAssay (NCI)
